In one assay the test system is MET. Nature of the assay: MET biochemical kinase assay. On the set-up: species or system human; concentration or dose not given beside the values. In short, it runs like this:
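Capture ELISA: anti-rabbit Fc coat, rabbit anti-MET cytoplasmic domain pAb, lysate MET captured, washed. Compound + kinase buffer (ATP, divalent metals). Readout anti-pTyr-HRP/TMB, colorimetric.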

The next assay deals with T1, FLK-1 receptor (Mus musculus, UniProt P35918).
T1 construct: expressed in transfected cells; host or cells: NIH3T3 C7#3
Nature of the assay: FLK-1 ELISA (kinase activity of the FLK-1 receptor in FLK-1/NIH3T3 cells, VEGF stimulated). In kind it is cell-based. In short, it runs like this: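 NIH3T3 C7#3 cells expressing FLK-1 were seeded at 25.000 cells/well, serum-starved overnight in 0.1% FBS, then treated with compound for two hours at 37°C (final DMSO 0.5%) before VEGF stimulation. Receptor was captured on anti-rabbit IgG-coated ELISA plates bearing affinity-purified anti-FLK-1 antiserum.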
On the technique in general: In an ELISA, binding on a coated surface is turned into a signal by an enzyme label.

T1 sequence (P35918 20-1345): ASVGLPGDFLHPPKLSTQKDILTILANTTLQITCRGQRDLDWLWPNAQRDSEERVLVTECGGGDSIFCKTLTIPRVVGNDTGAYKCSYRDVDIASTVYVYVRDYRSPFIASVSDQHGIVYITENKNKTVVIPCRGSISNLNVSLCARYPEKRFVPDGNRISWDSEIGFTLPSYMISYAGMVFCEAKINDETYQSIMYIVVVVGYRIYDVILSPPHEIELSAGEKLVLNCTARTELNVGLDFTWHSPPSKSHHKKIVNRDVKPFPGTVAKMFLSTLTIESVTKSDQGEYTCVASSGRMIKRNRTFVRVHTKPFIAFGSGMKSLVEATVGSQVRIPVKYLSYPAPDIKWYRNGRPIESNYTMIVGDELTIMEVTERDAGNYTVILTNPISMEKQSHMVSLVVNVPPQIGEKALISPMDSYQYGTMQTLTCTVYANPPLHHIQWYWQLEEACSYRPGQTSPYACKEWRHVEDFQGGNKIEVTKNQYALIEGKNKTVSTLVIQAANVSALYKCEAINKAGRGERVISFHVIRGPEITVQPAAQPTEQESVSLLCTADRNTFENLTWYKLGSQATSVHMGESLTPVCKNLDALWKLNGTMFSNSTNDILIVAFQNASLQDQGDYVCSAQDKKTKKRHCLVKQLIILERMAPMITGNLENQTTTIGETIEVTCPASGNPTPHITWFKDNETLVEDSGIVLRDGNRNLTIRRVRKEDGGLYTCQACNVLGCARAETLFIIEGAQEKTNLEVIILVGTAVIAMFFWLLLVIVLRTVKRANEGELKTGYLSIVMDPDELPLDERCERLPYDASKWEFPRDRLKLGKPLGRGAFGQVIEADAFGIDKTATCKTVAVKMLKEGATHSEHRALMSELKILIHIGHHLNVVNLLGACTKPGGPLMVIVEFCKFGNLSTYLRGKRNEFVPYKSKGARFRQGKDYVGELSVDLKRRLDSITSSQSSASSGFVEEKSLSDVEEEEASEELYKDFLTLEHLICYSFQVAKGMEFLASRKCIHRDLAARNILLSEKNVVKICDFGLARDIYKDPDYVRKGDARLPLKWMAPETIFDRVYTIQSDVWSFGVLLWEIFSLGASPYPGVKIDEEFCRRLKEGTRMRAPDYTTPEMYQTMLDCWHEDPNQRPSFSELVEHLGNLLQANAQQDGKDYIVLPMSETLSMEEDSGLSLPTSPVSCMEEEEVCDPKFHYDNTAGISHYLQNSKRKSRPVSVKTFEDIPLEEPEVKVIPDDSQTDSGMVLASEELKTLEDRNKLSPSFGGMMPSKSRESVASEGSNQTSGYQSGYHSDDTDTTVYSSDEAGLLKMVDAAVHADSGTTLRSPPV

On to `O=C1Nc2c(Br)cc(Br)cc2C1=Cc1ccc(Br)s1` [10734/A11], for which the “Met Kinase % Inhibition” value in the assay on MET came to 51.9%. For the same molecule, the “Fik Kinase %Inhibition” value at FLK-1 receptor was found to be 6.3%.

Consider `CCOc1cccc(C=C2C(=O)Nc3ccc(I)cc32)c1O` [10734/B02], for which, in the assay with MET, the “Met Kinase % Inhibition” value turned out to be 61.9%. Besides, on FLK-1 receptor, the “Fik Kinase %Inhibition” value is 8.5%.

For `O=C1Nc2ccc(I)cc2C1=Cc1cc(Cl)cc(Cl)c1O` [10734/B03], in the assay on MET, the “Met Kinase % Inhibition” value is 90.1%. In addition, at FLK-1 receptor, the “Fik Kinase %Inhibition” value came to 21.7%.

On to `O=C1Nc2ccc(I)cc2C1=Cc1cc(Cl)ccc1O` [10734/B04], for which, in the assay with MET, the “Met Kinase % Inhibition” value is given as 88.4%. At FLK-1 receptor, the “Fik Kinase %Inhibition” value came to 2.8%.

For `CCN(CC)c1ccc(C=C2C(=O)Nc3ccc(I)cc32)c(O)c1` [10734/B05], the “Met Kinase % Inhibition” value with MET was determined as 67.8%. The “Fik Kinase %Inhibition” value on FLK-1 receptor is -2.3%.

With `O=C1Nc2ccc(I)cc2C1=Cc1ccc([N+](=O)[O-])cc1` [10734/B06], the “Met Kinase % Inhibition” value in the assay with MET is listed as 91.2%. Further, the “Fik Kinase %Inhibition” value on FLK-1 receptor was -0.9%.

Consider `O=C1Nc2ccc(I)cc2C1=Cc1cc(Br)cc(Br)c1O` [10734/B07], for which, in the assay with MET, the “Met Kinase % Inhibition” value was determined as 93.2%. For the same molecule, the “Fik Kinase %Inhibition” value on FLK-1 receptor turned out to be 9.1%.

On to `O=C1Nc2ccc(I)cc2C1=Cc1cccc(F)c1O` [10734/B08], for which the “Met Kinase % Inhibition” value in the assay on MET came to 56.1%. In addition, the “Fik Kinase %Inhibition” value at FLK-1 receptor is listed as -0.5%.

As to `O=C1Nc2ccc(I)cc2C1=Cc1ccc(O)c(Br)c1` [10734/B09], in the assay with MET, the “Met Kinase % Inhibition” value came to 94.3%. Further, the “Fik Kinase %Inhibition” value at FLK-1 receptor is listed as -32.3%.

In the case of `CC(C)(C)c1ccc(C=C2C(=O)Nc3ccc(I)cc32)cc1` [10734/B10], the “Met Kinase % Inhibition” value in the assay on MET stood at 82.6%. Also, the “Fik Kinase %Inhibition” value at FLK-1 receptor turned out to be 15.7%.

As for `O=C1Nc2ccc(I)cc2C1=Cc1ccc(Br)s1` [10734/B11], the “Met Kinase % Inhibition” value in the assay on MET came to 83.6%. For the same molecule, the “Fik Kinase %Inhibition” value at FLK-1 receptor was 12.6%.

As for `CCOc1cccc(C=C2C(=O)Nc3ccc(Br)c(C)c32)c1O` [10734/C02], the “Met Kinase % Inhibition” value with MET is 78.6%. Besides, the “Fik Kinase %Inhibition” value on FLK-1 receptor was -3.9%.

As to `Cc1c(Br)ccc2c1C(=Cc1cc(Cl)cc(Cl)c1O)C(=O)N2` [10734/C03], the “Met Kinase % Inhibition” value in the assay on MET amounted to 88.2%. For the same molecule, the “Fik Kinase %Inhibition” value on FLK-1 receptor is -5.6%.

On to `Cc1c(Br)ccc2c1C(=Cc1cc(Cl)ccc1O)C(=O)N2` [10734/C04], for which, in the assay on MET, the “Met Kinase % Inhibition” value worked out at 90.7%. The “Fik Kinase %Inhibition” value on FLK-1 receptor was -37.6%.

For `CCN(CC)c1ccc(C=C2C(=O)Nc3ccc(Br)c(C)c32)c(O)c1` [10734/C05], the “Met Kinase % Inhibition” value in the assay on MET stood at 52.7%. Besides, the “Fik Kinase %Inhibition” value on FLK-1 receptor is -10.3%.

In the case of `Cc1c(Br)ccc2c1C(=Cc1ccc([N+](=O)[O-])cc1)C(=O)N2` [10734/C06], the “Met Kinase % Inhibition” value in the assay with MET came to 48.3%. In addition, on FLK-1 receptor, the “Fik Kinase %Inhibition” value is reported as -1.7%.

For `Cc1c(Br)ccc2c1C(=Cc1cc(Br)cc(Br)c1O)C(=O)N2` [10734/C07], the “Met Kinase % Inhibition” value with MET is on record as 96.8%. Moreover, the “Fik Kinase %Inhibition” value at FLK-1 receptor was -2.7%.

For `Cc1c(Br)ccc2c1C(=Cc1cccc(F)c1O)C(=O)N2` [10734/C08], in the assay with MET, the “Met Kinase % Inhibition” value is listed as 93.2%. On FLK-1 receptor, the “Fik Kinase %Inhibition” value is -34.2%.

As for `Cc1c(Br)ccc2c1C(=Cc1ccc(O)c(Br)c1)C(=O)N2` [10734/C09], the “Met Kinase % Inhibition” value in the assay with MET amounted to 88.6%. The “Fik Kinase %Inhibition” value at FLK-1 receptor is -13.3%.

As to `Cc1c(Br)ccc2c1C(=Cc1ccc(C(C)(C)C)cc1)C(=O)N2` [10734/C10], the “Met Kinase % Inhibition” value in the assay with MET amounted to 11.6%. At FLK-1 receptor, the “Fik Kinase %Inhibition” value turned out to be 10.1%.

Regarding `Cc1c(Br)ccc2c1C(=Cc1ccc(Br)s1)C(=O)N2` [10734/C11], the “Met Kinase % Inhibition” value in the assay on MET is 23.9%. Further, at FLK-1 receptor, the “Fik Kinase %Inhibition” value amounted to 6.3%.

On to `CCOc1cccc(C=C2C(=O)Nc3ccc(S(=O)(=O)NC)cc32)c1O` [10734/D02], for which the “Met Kinase % Inhibition” value with MET was 46.0%. Also, at FLK-1 receptor, the “Fik Kinase %Inhibition” value was -11.5%.

`CNS(=O)(=O)c1ccc2c(c1)C(=Cc1cc(Cl)cc(Cl)c1O)C(=O)N2` [10734/D03]: in the assay with MET, the “Met Kinase % Inhibition” value is listed as 78.6%. In addition, on FLK-1 receptor, the “Fik Kinase %Inhibition” value is given as 17.4%.

Turning to `CNS(=O)(=O)c1ccc2c(c1)C(=Cc1cc(Cl)ccc1O)C(=O)N2` [10734/D04], the “Met Kinase % Inhibition” value in the assay with MET is recorded as 46.9%. Also, the “Fik Kinase %Inhibition” value at FLK-1 receptor is given as 6.1%.

Turning to `CCN(CC)c1ccc(C=C2C(=O)Nc3ccc(S(=O)(=O)NC)cc32)c(O)c1` [10734/D05], the “Met Kinase % Inhibition” value in the assay with MET is 55.0%. Besides, the “Fik Kinase %Inhibition” value at FLK-1 receptor was 2.4%.

Regarding `CNS(=O)(=O)c1ccc2c(c1)C(=Cc1ccc([N+](=O)[O-])cc1)C(=O)N2` [10734/D06], the “Met Kinase % Inhibition” value with MET is 30.6%. At FLK-1 receptor, the “Fik Kinase %Inhibition” value is on record as 0.0%.

`CNS(=O)(=O)c1ccc2c(c1)C(=Cc1cc(Br)cc(Br)c1O)C(=O)N2` [10734/D07]: the “Met Kinase % Inhibition” value with MET was found to be 92.0%. Besides, at FLK-1 receptor, the “Fik Kinase %Inhibition” value worked out at 14.7%.

In the case of `CNS(=O)(=O)c1ccc2c(c1)C(=Cc1cccc(F)c1O)C(=O)N2` [10734/D08], the “Met Kinase % Inhibition” value in the assay on MET is given as 49.8%. For the same molecule, at FLK-1 receptor, the “Fik Kinase %Inhibition” value was 2.5%.

With `CNS(=O)(=O)c1ccc2c(c1)C(=Cc1ccc(O)c(Br)c1)C(=O)N2` [10734/D09], the “Met Kinase % Inhibition” value in the assay with MET was 88.0%. Further, the “Fik Kinase %Inhibition” value at FLK-1 receptor is recorded as -11.6%.

For `CNS(=O)(=O)c1ccc2c(c1)C(=Cc1ccc(C(C)(C)C)cc1)C(=O)N2` [10734/D10], the “Met Kinase % Inhibition” value in the assay on MET is on record as 20.6%. The “Fik Kinase %Inhibition” value on FLK-1 receptor is recorded as 11.1%.

As for `CNS(=O)(=O)c1ccc2c(c1)C(=Cc1ccc(Br)s1)C(=O)N2` [10734/D11], the “Met Kinase % Inhibition” value in the assay on MET was 33.9%. Also, at FLK-1 receptor, the “Fik Kinase %Inhibition” value was determined as 9.8%.

On to `CCOc1cccc(C=C2C(=O)Nc3ccc(S(=O)(=O)Nc4ccc(C(F)(F)F)cc4)cc32)c1O` [10734/E02], for which, in the assay on MET, the “Met Kinase % Inhibition” value stood at 66.9%. At FLK-1 receptor, the “Fik Kinase %Inhibition” value was 7.9%.

In the case of `O=C1Nc2ccc(S(=O)(=O)Nc3ccc(C(F)(F)F)cc3)cc2C1=Cc1cc(Cl)cc(Cl)c1O` [10734/E03], in the assay with MET, the “Met Kinase % Inhibition” value amounted to 99.3%. On FLK-1 receptor, the “Fik Kinase %Inhibition” value is on record as 26.9%.

The record behind these values is patent EP1247803A2, “Indolinone compounds suitable for modulation of protein kinases” (Sugen, Inc., priority 1996, dated 1998).
